{"source": "patent US7524869B2", "about": "“Taxanes having a C10 ester substituent” (Florida State University Research Foundation, Inc., priority 2000, dated 2009)", "system": "HCT116", "assay": "In vitro cytotoxicity measured by the cell colony formation assay", "format": "cell-based", "conditions": "HCT116 cells, 72 h drug incubation, colonies counted after 7 days; ID50 = drug concentration producing 50% inhibition of colony formation; read-out: IN VITRO ID 50 (nm) HCT116"}
{"smiles": "CCC(=O)O[C@H]1C(=O)[C@@]2(C)C([C@H](OC(=O)c3ccccc3)[C@]3(O)C[C@H](OC(=O)[C@H](O)[C@@H](NC(=O)c4cccs4)c4cccs4)C(C)=C1C3(C)C)[C@]1(OC(C)=O)CO[C@@H]1C[C@@H]2O", "note": "(some centres unmarked) [Compound 3425]", "values": [{"measurement": "IC50", "value": "< 1", "unit": "nM"}]}
{"smiles": "CC(=O)O[C@@]12CO[C@@H]1C[C@H](O)[C@@]1(C)C(=O)[C@H](OC(=O)C3CC3)C3=C(C)[C@@H](OC(=O)[C@H](O)[C@@H](NC(=O)c4cccs4)c4cccs4)C[C@@](O)([C@@H](OC(=O)c4ccccc4)C12)C3(C)C", "note": "(some centres unmarked) [Compound 3453]", "values": [{"measurement": "IC50", "value": "< 1", "unit": "nM"}]}
{"smiles": "CCCC(=O)O[C@H]1C(=O)[C@@]2(C)C([C@H](OC(=O)c3ccccc3)[C@]3(O)C[C@H](OC(=O)[C@H](O)[C@@H](NC(=O)c4ccccc4)C4CC4)C(C)=C1C3(C)C)[C@]1(OC(C)=O)CO[C@@H]1C[C@@H]2O", "note": "(some centres unmarked) [Compound 3482]", "values": [{"measurement": "IC50", "value": "< 1", "unit": "nM"}]}
{"smiles": "C/C=C/C(=O)N[C@@H](c1cccs1)[C@@H](O)C(=O)O[C@H]1C[C@@]2(O)[C@@H](OC(=O)c3ccccc3)C3[C@](C)(C(=O)[C@H](OC(=O)CC)C(=C1C)C2(C)C)[C@@H](O)C[C@H]1OC[C@@]31OC(C)=O", "note": "(some centres unmarked) [Compound 3494]", "values": [{"measurement": "IC50", "value": "< 1", "unit": "nM"}]}
{"smiles": "C/C=C/C(=O)N[C@@H](c1cccs1)[C@@H](O)C(=O)O[C@H]1C[C@@]2(O)[C@@H](OC(=O)c3ccccc3)C3[C@](C)(C(=O)[C@H](OC(=O)C4CC4)C(=C1C)C2(C)C)[C@@H](O)C[C@H]1OC[C@@]31OC(C)=O", "note": "(some centres unmarked) [Compound 3513]", "values": [{"measurement": "IC50", "value": "< 1", "unit": "nM"}]}
{"smiles": "CCC(=O)O[C@H]1C(=O)[C@@]2(C)C([C@H](OC(=O)c3ccccc3)[C@]3(O)C[C@H](OC(=O)[C@H](O)[C@@H](NC(=O)OC(C)C)c4ccco4)C(C)=C1C3(C)C)[C@]1(OC(C)=O)CO[C@@H]1C[C@@H]2O", "note": "(some centres unmarked) [Compound 3522]", "values": [{"measurement": "IC50", "value": "< 1", "unit": "nM"}]}
{"smiles": "CCOC(=O)N[C@@H](c1ccco1)[C@@H](O)C(=O)O[C@H]1C[C@@]2(O)[C@@H](OC(=O)c3ccccc3)C3[C@](C)(C(=O)[C@H](OC(=O)CC)C(=C1C)C2(C)C)[C@@H](O)C[C@H]1OC[C@@]31OC(C)=O", "note": "(some centres unmarked) [Compound 3535]", "values": [{"measurement": "IC50", "value": "< 1", "unit": "nM"}]}
{"smiles": "C/C=C/C(=O)N[C@@H](c1cccs1)[C@@H](O)C(=O)O[C@H]1C[C@@]2(O)[C@@H](OC(=O)c3ccccc3)C3[C@](C)(C(=O)[C@H](OC(=O)CCC)C(=C1C)C2(C)C)[C@@H](O)C[C@H]1OC[C@@]31OC(C)=O", "note": "(some centres unmarked) [Compound 3595]", "values": [{"measurement": "IC50", "value": "< 1", "unit": "nM"}]}
{"smiles": "CCC(=O)O[C@H]1C(=O)[C@@]2(C)C([C@H](OC(=O)c3ccccc3)[C@]3(O)C[C@H](OC(=O)[C@H](O)[C@@H](NC(=O)c4cccs4)c4ccco4)C(C)=C1C3(C)C)[C@]1(OC(C)=O)CO[C@@H]1C[C@@H]2O", "note": "(some centres unmarked) [Compound 3644]", "values": [{"measurement": "IC50", "value": "< 1", "unit": "nM"}]}
{"smiles": "CCCC(=O)O[C@H]1C(=O)[C@@]2(C)C([C@H](OC(=O)c3ccccc3)[C@]3(O)C[C@H](OC(=O)[C@H](O)[C@@H](NC(=O)c4cccs4)c4ccco4)C(C)=C1C3(C)C)[C@]1(OC(C)=O)CO[C@@H]1C[C@@H]2O", "note": "(some centres unmarked) [Compound 3656]", "values": [{"measurement": "IC50", "value": "< 1", "unit": "nM"}]}
{"smiles": "CC(=O)O[C@@]12CO[C@@H]1C[C@H](O)[C@@]1(C)C(=O)[C@H](OC(=O)C3CC3)C3=C(C)[C@@H](OC(=O)[C@H](O)[C@@H](NC(=O)c4cccs4)c4ccco4)C[C@@](O)([C@@H](OC(=O)c4ccccc4)C12)C3(C)C", "note": "(some centres unmarked) [Compound 3663]", "values": [{"measurement": "IC50", "value": "< 1", "unit": "nM"}]}
{"smiles": "CCOC(=O)N[C@@H](c1ccco1)[C@@H](O)C(=O)O[C@H]1C[C@@]2(O)[C@@H](OC(=O)c3ccccc3)C3[C@](C)(C(=O)[C@H](OC(=O)C4CC4)C(=C1C)C2(C)C)[C@@H](O)C[C@H]1OC[C@@]31OC(C)=O", "note": "(some centres unmarked) [Compound 3677]", "values": [{"measurement": "IC50", "value": "< 1", "unit": "nM"}]}
{"smiles": "CCCC(=O)O[C@H]1C(=O)[C@@]2(C)C([C@H](OC(=O)c3ccccc3)[C@]3(O)C[C@H](OC(=O)[C@H](O)[C@@H](NC(=O)c4ccco4)c4ccco4)C(C)=C1C3(C)C)[C@]1(OC(C)=O)CO[C@@H]1C[C@@H]2O", "note": "(some centres unmarked) [Compound 3686]", "values": [{"measurement": "IC50", "value": "< 1", "unit": "nM"}]}
{"smiles": "CCCC(=O)O[C@H]1C(=O)[C@@]2(C)C([C@H](OC(=O)c3ccccc3)[C@]3(O)C[C@H](OC(=O)[C@H](O)[C@@H](NC(=O)OCC)c4ccco4)C(C)=C1C3(C)C)[C@]1(OC(C)=O)CO[C@@H]1C[C@@H]2O", "note": "(some centres unmarked) [Compound 3693]", "values": [{"measurement": "IC50", "value": "< 1", "unit": "nM"}]}
{"smiles": "CCC(=O)O[C@H]1C(=O)[C@@]2(C)C([C@H](OC(=O)c3ccccc3)[C@]3(O)C[C@H](OC(=O)[C@H](O)[C@@H](NC(=O)c4ccco4)c4ccco4)C(C)=C1C3(C)C)[C@]1(OC(C)=O)CO[C@@H]1C[C@@H]2O", "note": "(some centres unmarked) [Compound 3818]", "values": [{"measurement": "IC50", "value": "< 1", "unit": "nM"}]}
{"smiles": "CC(=O)O[C@@]12CO[C@@H]1C[C@H](O)[C@@]1(C)C(=O)[C@H](OC(=O)C3CC3)C3=C(C)[C@@H](OC(=O)[C@H](O)[C@@H](NC(=O)OC(C)C)c4ccco4)C[C@@](O)([C@@H](OC(=O)c4ccccc4)C12)C3(C)C", "note": "(some centres unmarked) [Compound 3853]", "values": [{"measurement": "IC50", "value": "< 1", "unit": "nM"}]}
{"smiles": "CC(=O)O[C@@]12CO[C@@H]1C[C@H](O)[C@@]1(C)C(=O)[C@H](OC(=O)C3CC3)C3=C(C)[C@@H](OC(=O)[C@H](O)[C@@H](NC(=O)c4ccco4)c4ccco4)C[C@@](O)([C@@H](OC(=O)c4ccccc4)C12)C3(C)C", "note": "(some centres unmarked) [Compound 3866]", "values": [{"measurement": "IC50", "value": "< 1", "unit": "nM"}]}
{"smiles": "CCCC(=O)O[C@H]1C(=O)[C@@]2(C)C([C@H](OC(=O)c3ccccc3)[C@]3(O)C[C@H](OC(=O)[C@H](O)[C@@H](NC(=O)OC(C)C)c4cccs4)C(C)=C1C3(C)C)[C@]1(OC(C)=O)CO[C@@H]1C[C@@H]2O", "note": "(some centres unmarked) [Compound 3909]", "values": [{"measurement": "IC50", "value": "< 1", "unit": "nM"}]}
{"smiles": "CCCC(=O)O[C@H]1C(=O)[C@@]2(C)C([C@H](OC(=O)c3ccccc3)[C@]3(O)C[C@H](OC(=O)[C@H](O)[C@@H](NC(=O)OCC(C)C)c4ccco4)C(C)=C1C3(C)C)[C@]1(OC(C)=O)CO[C@@H]1C[C@@H]2O", "note": "(some centres unmarked) [Compound 3957]", "values": [{"measurement": "IC50", "value": "< 10", "unit": "nM"}]}
{"smiles": "C/C=C/C(=O)N[C@@H](c1ccco1)[C@@H](O)C(=O)O[C@H]1C[C@@]2(O)[C@@H](OC(=O)c3ccccc3)C3[C@](C)(C(=O)[C@H](OC(=O)C4CC4)C(=C1C)C2(C)C)[C@@H](O)C[C@H]1OC[C@@]31OC(C)=O", "note": "(some centres unmarked) [Compound 3971]", "values": [{"measurement": "IC50", "value": "< 1", "unit": "nM"}]}
{"smiles": "C/C=C/C(=O)N[C@@H](c1ccco1)[C@@H](O)C(=O)O[C@H]1C[C@@]2(O)[C@@H](OC(=O)c3ccccc3)C3[C@](C)(C(=O)[C@H](OC(=O)CC)C(=C1C)C2(C)C)[C@@H](O)C[C@H]1OC[C@@]31OC(C)=O", "note": "(some centres unmarked) [Compound 3982]", "values": [{"measurement": "IC50", "value": "< 1", "unit": "nM"}]}
{"smiles": "C/C=C/C(=O)N[C@@H](c1ccco1)[C@@H](O)C(=O)O[C@H]1C[C@@]2(O)[C@@H](OC(=O)c3ccccc3)C3[C@](C)(C(=O)[C@H](OC(=O)CCC)C(=C1C)C2(C)C)[C@@H](O)C[C@H]1OC[C@@]31OC(C)=O", "note": "(some centres unmarked) [Compound 3994]", "values": [{"measurement": "IC50", "value": "< 1", "unit": "nM"}]}
{"smiles": "CCOC(=O)N[C@@H](c1cccs1)[C@@H](O)C(=O)O[C@H]1C[C@@]2(O)[C@@H](OC(=O)c3ccccc3)C3[C@](C)(C(=O)[C@H](OC(=O)C4CC4)C(=C1C)C2(C)C)[C@@H](O)C[C@H]1OC[C@@]31OC(C)=O", "note": "(some centres unmarked) [Compound 4051]", "values": [{"measurement": "IC50", "value": "< 1", "unit": "nM"}]}
{"smiles": "CCCC(=O)N[C@@H](c1ccco1)[C@@H](O)C(=O)O[C@H]1C[C@@]2(O)[C@@H](OC(=O)c3ccccc3)C3[C@](C)(C(=O)[C@H](OC(=O)C4CC4)C(=C1C)C2(C)C)[C@@H](O)C[C@H]1OC[C@@]31OC(C)=O", "note": "(some centres unmarked) [Compound 4062]", "values": [{"measurement": "IC50", "value": "< 1", "unit": "nM"}]}
{"smiles": "CC(=O)O[C@@]12CO[C@@H]1C[C@H](O)[C@@]1(C)C(=O)[C@H](OC(=O)C3CC3)C3=C(C)[C@@H](OC(=O)[C@H](O)[C@@H](NC(=O)c4cccnc4)c4cccs4)C[C@@](O)([C@@H](OC(=O)c4ccccc4)C12)C3(C)C", "note": "(some centres unmarked) [Compound 4112]", "values": [{"measurement": "IC50", "value": "< 10", "unit": "nM"}]}
{"smiles": "CCC(=O)O[C@H]1C(=O)[C@@]2(C)C([C@H](OC(=O)c3ccccc3)[C@]3(O)C[C@H](OC(=O)[C@H](O)[C@@H](NC(=O)c4cccnc4)c4cccs4)C(C)=C1C3(C)C)[C@]1(OC(C)=O)CO[C@@H]1C[C@@H]2O", "note": "(some centres unmarked) [Compound 4121]", "values": [{"measurement": "IC50", "value": "< 10", "unit": "nM"}]}
